Molecules are shown by their SMILES.

The target in one data set is Cytochrome P450 2D6 (Homo sapiens, UniProt P10635). The experiment in a line: Activity of human CYP2D6 expressed in microsomes isolated from baculovirus infected insect cell assessed as enzyme-mediated 2-hydroxy-3-(4-((6-methoxy-1-methyl-1H-benzo[d]imidazol-2-yl)methoxy)phenyl)propanamide formation at 20 uM after 2 hrs by radio-HPLC/LC-MS/MS analysis in presence of NADPH-generating system and NADPH-generating system/SAM. The data set is classed as ADME.
Chain of Cytochrome P450 2D6 (P10635 whole entry): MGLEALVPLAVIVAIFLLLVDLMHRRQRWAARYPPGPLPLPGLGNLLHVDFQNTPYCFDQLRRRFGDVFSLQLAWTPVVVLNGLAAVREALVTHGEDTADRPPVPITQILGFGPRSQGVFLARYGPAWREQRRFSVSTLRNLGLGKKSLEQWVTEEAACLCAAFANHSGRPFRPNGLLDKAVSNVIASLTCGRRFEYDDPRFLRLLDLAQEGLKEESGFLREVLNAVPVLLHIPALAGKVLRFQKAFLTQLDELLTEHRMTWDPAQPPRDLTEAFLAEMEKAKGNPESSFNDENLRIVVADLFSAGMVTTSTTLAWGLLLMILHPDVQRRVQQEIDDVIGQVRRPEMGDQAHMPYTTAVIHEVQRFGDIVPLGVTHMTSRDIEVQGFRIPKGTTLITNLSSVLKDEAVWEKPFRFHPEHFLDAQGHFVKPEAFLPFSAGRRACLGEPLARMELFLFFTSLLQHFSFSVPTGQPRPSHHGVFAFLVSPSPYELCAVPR

Data set [1] has as its target T1, UDP-glucuronosyltransferase 1A3 (Homo sapiens, UniProt P35503).
T1 sequence (P35503 whole entry): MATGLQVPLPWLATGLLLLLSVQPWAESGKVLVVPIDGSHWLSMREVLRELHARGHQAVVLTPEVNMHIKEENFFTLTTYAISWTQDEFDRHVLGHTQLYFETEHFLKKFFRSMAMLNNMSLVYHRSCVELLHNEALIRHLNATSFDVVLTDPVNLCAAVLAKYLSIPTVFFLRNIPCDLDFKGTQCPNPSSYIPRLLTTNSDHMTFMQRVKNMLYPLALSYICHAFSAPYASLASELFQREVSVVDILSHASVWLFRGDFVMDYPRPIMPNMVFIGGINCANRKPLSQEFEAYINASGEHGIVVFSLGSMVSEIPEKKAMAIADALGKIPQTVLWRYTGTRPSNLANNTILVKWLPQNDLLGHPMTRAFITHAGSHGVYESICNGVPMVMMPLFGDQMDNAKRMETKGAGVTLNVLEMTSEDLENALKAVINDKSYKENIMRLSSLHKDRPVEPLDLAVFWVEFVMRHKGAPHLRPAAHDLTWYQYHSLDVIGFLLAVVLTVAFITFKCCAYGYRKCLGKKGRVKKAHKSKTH
The experiment in a line: Activity of human UGT1A3 expressed in microsomes isolated from baculovirus infected insect cell assessed as enzyme-mediated 5-(4-((6-methoxy-1H-benzo[d]imidazol-2-yl)methoxy)benzyl)thiazolidine-2,4-dione formation at 20 uM after 4 hrs by radio-HPLC/LC-MS/MS analysis in presence of NADPH-generating system and NADPH-generating system/SAM in presence of UDPGA and UDPGA/SAM. The data set is classed as ADME.

The target of data set [2] is T2, UDP-glucuronosyltransferase 1A9 (Homo sapiens, UniProt O60656).
T2 sequence (O60656 whole entry): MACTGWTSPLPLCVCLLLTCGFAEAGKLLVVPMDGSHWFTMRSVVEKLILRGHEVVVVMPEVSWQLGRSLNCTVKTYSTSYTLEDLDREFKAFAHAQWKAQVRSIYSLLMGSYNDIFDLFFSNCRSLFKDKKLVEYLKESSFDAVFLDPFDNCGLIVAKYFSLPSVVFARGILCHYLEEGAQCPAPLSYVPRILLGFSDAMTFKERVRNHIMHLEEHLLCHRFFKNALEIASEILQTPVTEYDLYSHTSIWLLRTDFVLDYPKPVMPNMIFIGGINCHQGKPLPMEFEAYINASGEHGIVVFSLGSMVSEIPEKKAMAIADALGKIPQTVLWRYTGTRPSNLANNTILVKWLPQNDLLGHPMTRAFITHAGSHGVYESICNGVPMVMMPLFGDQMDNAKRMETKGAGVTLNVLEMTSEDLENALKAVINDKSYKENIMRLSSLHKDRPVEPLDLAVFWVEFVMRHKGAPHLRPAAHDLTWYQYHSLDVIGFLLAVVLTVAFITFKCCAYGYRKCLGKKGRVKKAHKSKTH
The experiment in a line: Activity of human UGT1A9 expressed in microsomes isolated from baculovirus infected insect cell assessed as enzyme-mediated (2S,3S,4S,5R,6R)-3,4,5-trihydroxy-6-(5-(4-((6-methoxy-1-methyl-1H-benzo[d]imidazol-2-yl)methoxy)benzyl)-2,4-dioxothiazolidin-3-yl)tetrahydro-2H-pyran-2-carboxylic acid formation at 20 uM after 4 hrs by radio-HPLC/LC-MS/MS analysis in presence of UDPGA. Type of data set: ADME.

Data set [3] in a line: Drug metabolism in human hepatocytes assessed as formation of 5-(4-((6-methoxy-1H-benzo[d]imidazol-2-yl)methoxy)benzyl)thiazolidine-2,4-dione at 30 uM after 3 hrs by radio-HPLC/LC-MS/MS analysis in presence of NADPH-generating system and NADPH-generating system/SAM. Type of data set: ADME, cell-based, Hepatocyte.
A short description of data set [4]: Drug metabolism in cynomolgus monkey liver microsomes assessed as formation of 5-hydroxy-5-(4-((6-methoxy-1-methyl-1H-benzo[d]imidazol-2-yl)methoxy)benzyl)thiazolidine-2,4-dione at 20 uM after 2 hrs by radio-HPLC/LC-MS/MS analysis in presence of NADPH-generating system and NADPH-generating system/SAM. Type of data set: ADME, Macaca fascicularis. (Microsomes from liver hold many membrane-bound enzymes, among them those of drug oxidation.)

The target in data set [5] is T3, UDP-glucuronosyltransferase 2B7 (Homo sapiens, UniProt P16662).
T3 sequence (P16662 whole entry): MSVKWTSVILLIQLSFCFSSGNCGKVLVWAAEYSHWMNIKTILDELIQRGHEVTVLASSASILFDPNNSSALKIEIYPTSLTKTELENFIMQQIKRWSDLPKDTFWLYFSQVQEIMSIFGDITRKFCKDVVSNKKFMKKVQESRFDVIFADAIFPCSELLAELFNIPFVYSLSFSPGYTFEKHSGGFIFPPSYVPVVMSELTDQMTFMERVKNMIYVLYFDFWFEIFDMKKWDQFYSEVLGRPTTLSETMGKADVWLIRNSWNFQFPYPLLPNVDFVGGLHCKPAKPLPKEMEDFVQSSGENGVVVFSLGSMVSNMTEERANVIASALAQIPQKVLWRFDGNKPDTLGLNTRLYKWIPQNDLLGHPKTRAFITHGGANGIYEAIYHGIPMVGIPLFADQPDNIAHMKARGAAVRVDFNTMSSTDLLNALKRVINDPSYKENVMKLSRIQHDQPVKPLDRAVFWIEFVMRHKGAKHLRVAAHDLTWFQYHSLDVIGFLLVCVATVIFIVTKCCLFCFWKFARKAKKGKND
The experiment in a line: Activity of human UGT2B7 expressed in microsomes isolated from baculovirus infected insect cell assessed as enzyme-mediated 2-mercapto-3-(4-((6-methoxy-1-methyl-1H-benzo[d]imidazol-2-yl)methoxy)phenyl)propanoic acid formation at 20 uM after 4 hrs by radio-HPLC/LC-MS/MS analysis in presence of UDPGA, UDPGA/SAM and NADPH-generating system in presence of UDPGA and UDPGA/SAM. The data set is classed as ADME.

Data set [6] has as its target T1, UDP-glucuronosyltransferase 1A3. The experiment in a line: Activity of human UGT1A3 expressed in microsomes isolated from baculovirus infected insect cell assessed as enzyme-mediated 3-(4-((6-methoxy-1-methyl-1H-benzo[d]imidazol-2-yl)methoxy)phenyl)-2-(methylthio)propanamide formation at 20 uM after 4 hrs by radio-HPLC/LC-MS/MS analysis in presence of NADPH-generating system/SAM in presence of UDPGA and UDPGA/SAM. Type of data set: ADME.

The target of data set [7] is T3, UDP-glucuronosyltransferase 2B7. The experiment in a line: Activity of human UGT2B7 expressed in microsomes isolated from baculovirus infected insect cell assessed as enzyme-mediated compound formation treated with [14C]-rivoglitazone at 20 uM after 4 hrs by radio-HPLC/LC-MS/MS analysis in presence of UDPGA, UDPGA/SAM.

For `COc1ccc2nc(COc3ccc(C[14CH]4SC(=O)NC4=O)cc3)n(C)c2c1.Cl` (racemic), the Drug metabolism result is given as “metabolite_detected” at Cytochrome P450 2D6; “metabolite_not_detected” in data set [1]; “metabolite_not_detected” in data set [2]; “metabolite_detected” in data set [3]; “metabolite_detected” in data set [4]; “metabolite_detected” in data set [5]. In addition, the Drug metabolism entry in data set [6] is on record as “metabolite_not_detected”.
Consider `COc1ccc2nc(COc3ccc(CC(S)C(=O)O)cc3)n(C)c2c1` (stereo not drawn), for which the Drug metabolism result in data set [7] was “metabolite_detected”.

These data come from ChEMBL document CHEMBL3526048, “In vitro metabolism of rivoglitazone, a novel peroxisome proliferator-activated receptor γ agonist, in rat, monkey, and human liver microsomes and freshly isolated hepatocytes” (Drug Metab Dispos, 2011).
